Here are results for 44 compounds from US11179412B2, “Methods of treating conditions involving elevated inflammatory response” (University of Pittsburgh—Of the Commonwealth System of …, priority 2017, dated 2021).

Structures can show the parent of a compound that is named as a salt.

In the experiment the test system is STING activation (IFNβ release) in iBMDMs. The experiment can be described thus: IFNβ release ELISA after STING ligand (or LPS) stimulation, iBMDMs. In kind it is cell-based, mouse. Conditions: iBMDMs; 3′3′-cGAMP 10 μg/ml, 16 hours; compound 10 μM. From the text:
Commercially available enzyme-linked immunosorbent assay (ELISA) kits were used to measure the concentrations of mouse IFNβ (Thermo Fisher Scientific) or human IFNβ (Thermo Fisher Scientific) in culture medium according to the manufacturer's instructions. […]
Take `O=C1NC(=O)/C(=C/c2ccc(-c3ccc(F)cc3O)o2)S1` [AS-252424]: the “3′3′-cGAMP-induced IFNβ release” value is “promoted” and the “fold increase in IFN-β release” value was determined as 6.84 fold. As for `Cc1cc2c(C(C)C)c(O)c(O)c(C=O)c2c(O)c1-c1c(C)cc2c(C(C)C)c(O)c(O)c(C=O)c2c1O` [AT101], the “fold increase in IFN-β release” value was 0.13 fold. The same measure, in the same setting: the result for `CCNC(=O)c1noc(-c2cc(C(C)C)c(O)cc2O)c1-c1ccc(CN2CCOCC2)cc1` [AUY922 (NVP-AUY922)] reads 0.93 fold; that for `C=CC(=O)Nc1cccc(Nc2nc(Nc3ccc(OCCOC)cc3)ncc2F)c1` [AVL-292], 0.16 fold. In the case of `C[C@@H]1COCCN1c1cc(C2(S(C)(=O)=O)CC2)nc(-c2cccc3[nH]ccc23)n1` [AZ20], the “fold increase in IFN-β release” value stood at 0.32 fold. Regarding `COc1cc(N2CCN(C)CC2)ccc1Nc1nccc(-c2cn(C)c3cnccc23)n1` [AZ191], the “fold increase in IFN-β release” value came to 2.01 fold. For `COc1cc(OC2CCN(C)CC2)ccc1Nc1ncc2c(n1)n(C1CCCC1)c(=O)n2C` [AZ 3146], the “fold increase in IFN-β release” value came to 0.10 fold. Regarding `CC(=O)Nc1cccc2c1c(Sc1ccc(Cl)cc1)c(C)n2CC(=O)O` [AZD1981], the “fold increase in IFN-β release” value came out at 3.11 fold. On the same count and under the same terms, the result for `COC1CCN(C(=O)c2cc(Cc3n[nH]c(=O)c4ccccc34)ccc2F)CC1` [AZD2461] reads 2.12 fold; that for `COc1cc(CCc2cc(NC(=O)c3ccc(N4CC(C)NC(C)C4)cc3)n[nH]2)cc(OC)c1` (stereo not drawn) [AZD4547], 0.35 fold; that for `Cc1cc([C@@H](C)Nc2ccccc2C(=O)O)c2nc(N3CCOCC3)cc(=O)n2c1` [AZD6482], 4.47 fold. On to `CN(C)C(=O)c1ccc(S(=O)(=O)c2ccc(NC(=O)[C@@](C)(O)C(F)(F)F)c(Cl)c2)cc1` [AZD7545], for which the “fold increase in IFN-β release” value came out at 3.45 fold. The same measure, in the same setting: the same measure for `NC(=O)Nc1cc(-c2cccc(F)c2)sc1C(=O)N[C@H]1CCCNC1` [AZD7762]: 0.45 fold. Same read-out and setting: the same measure for `C=CC(=O)Nc1cc(Nc2nccc(-c3cn(C)c4ccccc34)n2)c(OC)cc1N(C)CCN(C)C` [AZD9291]: 0.85 fold; for `NC(=O)c1ncn([C@@H]2O[C@H](CO)[C@@H](O)[C@H]2O)c1N` [Acadesine]: 1.02 fold. On the same count and under the same terms, the result for `COc1ccc2cccc(CCNC(C)=O)c2c1` [Agomelatine] reads 0.97 fold; that for `Oc1ncnc2[nH]ncc12` [Allopurinol], 3.15 fold. For the compound `CCOC(=O)[C@H]1O[C@@H]1C(=O)N[C@@H](CC(C)C)C(=O)NCCC(C)C` [Aloxistatin], the “fold increase in IFN-β release” value was found to be 0.31 fold. For `Cc1c(-c2ccnn2C)cc(C(=O)NCc2ccc(S(C)(=O)=O)cn2)c(=O)n1-c1cccc(C(F)(F)F)c1` [Alvelestat (AZD9668), Alvelestat], the “fold increase in IFN-β release” value worked out at 0.27 fold.

As for `CCOC(=O)C1=C(COCCN)NC(C)=C(C(=O)OC)C1c1ccccc1Cl` (stereo not drawn) [Amlodipine], the “fold increase in IFN-β release” value was determined as 1.46 fold. Same read-out and setting: the result for `COc1cc(F)c(C(C)C)cc1-c1ccc(C(F)(F)F)cc1CN1C(=O)O[C@H](c2cc(C(F)(F)F)cc(C(F)(F)F)c2)[C@@H]1C` [Anacetrapib (MK-0859), Anacetrapib] reads 2.12 fold. Same read-out and setting: the same measure for `CC(C)(C#N)c1cc(Cn2cncn2)cc(C(C)(C)C#N)c1` [Anastrozole]: 0.98 fold; for `COc1ccc(C(=O)N2CCCC2=O)cc1` [Aniracetam]: 1.02 fold.

For the compound `N#CC1(c2ccc(NC(=O)c3cccnc3NCc3ccncc3)cc2)CCCC1` [Apatinib], the “fold increase in IFN-β release” value is 0.26 fold.

Turning to `O=c1cc(-c2ccc(O)cc2)oc2cc(O)cc(O)c12` [Apigenin], the “fold increase in IFN-β release” value was determined as 0.44 fold.

`COc1ccc(-n2nc(C(N)=O)c3c2C(=O)N(c2ccc(N4CCCCC4=O)cc2)CC3)cc1` [Apixaban]: the “fold increase in IFN-β release” value is 2.83 fold. With `O=C1C(=O)N(Cc2ccc(Cl)c(Cl)c2)c2ccccc21` [Apoptosis Activator 2], the “fold increase in IFN-β release” value was 0.17 fold. Consider `C[C@@H](O[C@H]1OCCN(Cc2n[nH]c(=O)[nH]2)[C@H]1c1ccc(F)cc1)c1cc(C(F)(F)F)cc(C(F)(F)F)c1` [Aprepitant], for which the “fold increase in IFN-β release” value is reported as 0.76 fold. On to `O=C(O)c1cccc(-c2noc(-c3ccccc3F)n2)c1` [Ataluren (PTC124), Ataluren], for which the “fold increase in IFN-β release” value is on record as 1.74 fold. The same measure, in the same setting: the result for `CN(C)C(=O)Nc1cccc(-c2ccc(N(C)C)cc2)c1` [Atglistatin] reads 0.91 fold; that for `CC(C)c1c(C(=O)Nc2ccccc2)c(-c2ccccc2)c(-c2ccc(F)cc2)n1CC[C@@H](O)C[C@@H](O)CC(=O)[O-].CC(C)c1c(C(=O)Nc2ccccc2)c(-c2ccccc2)c(-c2ccc(F)cc2)n1CC[C@@H](O)C[C@@H](O)CC(=O)[O-].[Ca+2]` [Atorvastatin Calcium], 1.45 fold.

`CC(=O)OCOC(=O)CN(CC(=O)OCOC(C)=O)c1ccccc1OCCOc1ccccc1N(CC(=O)OCOC(C)=O)CC(=O)OCOC(C)=O` [BAPTA-AM]: the “fold increase in IFN-β release” value worked out at 0.52 fold. The same measure, in the same setting: the same measure for `CC[C@@H]1C(=O)N(C)c2cnc(Nc3ccc(C(=O)NC4CCN(C)CC4)cc3OC)nc2N1C1CCCC1` [BI 2536]: 0.45 fold.

`CC(C)CCN1c2nc(Nc3cc(F)c(O)c(F)c3)ncc2N(C)C(=O)C1C` (stereo not drawn) [BI-D1870]: the “fold increase in IFN-β release” value was found to be 0.79 fold. On the same count and under the same terms, the result for `C/C(=C\C(=O)Nc1ccccc1C(=O)O)c1ccc2ccccc2c1` [BIBR 1532] reads 2.10 fold; that for `COc1ccc2c(c1)c(CC(=O)N1CCOCC1)c(C)n2C(=O)c1ccc(Cl)cc1` [BML-190], 0.35 fold.

For `COc1ccnc2[nH]cc(C(=O)C(=O)N3CCN(C(=O)c4ccccc4)C[C@H]3C)c12` [BMS-378806], the “fold increase in IFN-β release” value was determined as 1.70 fold.

Regarding `Cn1c(N2CCCCS2(=O)=O)nc(C(=O)NCc2ccc(F)cc2)c(O)c1=O` [BMS-707035], the “fold increase in IFN-β release” value was 1.59 fold. As for `O=C(Oc1cc(S(=O)(=O)c2ccccc2)ccc1[N+](=O)[O-])c1ccc(Cl)cc1` [BTB06584], the “fold increase in IFN-β release” value amounted to 3.11 fold. Turning to `O=C(Nc1cccc(Nc2ncc(Br)c(NCCc3cnc[nH]3)n2)c1)N1CCCC1` [BX-912], the “fold increase in IFN-β release” value was 1.86 fold. For the compound `CNC(=O)[C@H](Cc1ccccc1)NC(=O)[C@H](CC(C)C)[C@H](CSc1cccs1)C(=O)NO` [Batimastat (BB-94), Batimastat], the “fold increase in IFN-β release” value came to 1.20 fold. Still for that read-out and setting: the same measure for `Cc1c(-c2ccc(O)cc2)n(Cc2ccc(OCCN3CCCCCC3)cc2)c2ccc(O)cc12` [Bazedoxifene HCl]: 0.15 fold. The same measure, in the same setting: the result for `O=C(/C=C/c1cccc(S(=O)(=O)Nc2ccccc2)c1)NO` [Belinostat (PXD101), Belinostat] reads 0.70 fold; that for `COc1c(O)cc2c(c1O)[C@@H]1O[C@H](CO)[C@@H](O)[C@H](O)[C@H]1OC2=O` [Bergenin], 0.57 fold.
